Reference: patent US9464084B2, “P2X7 modulators” (Janssen Pharmaceutica NV, priority 2013, dated 2016)

molecular target: P2X7 (Homo sapiens (Human), UniProt Q99572); assay: P2X7 antagonism in human PBMCs (LPS + Bz-ATP induced IL-1β release, ELISA); format: cell-based; conditions: compound 1 μM, LPS 30 ng/ml, Bz-ATP 0.5 mM;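 further: PBMCs from donor human blood, with a further 1.5 h incubation of the cells in the assay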
Sequence (Q99572 whole entry): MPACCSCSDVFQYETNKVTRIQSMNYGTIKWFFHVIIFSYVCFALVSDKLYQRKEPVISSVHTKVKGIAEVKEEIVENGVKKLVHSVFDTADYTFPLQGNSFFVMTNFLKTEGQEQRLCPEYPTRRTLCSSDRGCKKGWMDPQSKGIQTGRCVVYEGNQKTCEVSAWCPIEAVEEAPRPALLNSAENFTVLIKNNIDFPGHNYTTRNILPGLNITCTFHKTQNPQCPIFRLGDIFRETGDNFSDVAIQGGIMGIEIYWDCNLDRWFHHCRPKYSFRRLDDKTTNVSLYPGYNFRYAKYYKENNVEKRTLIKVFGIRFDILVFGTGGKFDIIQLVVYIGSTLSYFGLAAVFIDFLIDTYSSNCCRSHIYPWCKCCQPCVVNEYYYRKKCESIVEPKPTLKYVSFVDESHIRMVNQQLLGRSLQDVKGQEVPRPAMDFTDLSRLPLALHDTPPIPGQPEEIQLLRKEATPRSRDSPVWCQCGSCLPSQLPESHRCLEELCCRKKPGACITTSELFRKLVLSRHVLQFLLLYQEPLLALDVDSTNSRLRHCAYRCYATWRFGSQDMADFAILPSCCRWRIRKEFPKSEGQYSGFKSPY

| Compound | PBMC 1 μM (% control) |
| --- | --- |
| Cn1nc2c(c1-c1ccc(F)cc1)CCN(C(=O)c1cccc(C(F)(F)F)c1Cl)C2 [Example 105, 6-{[2-Chloro-3-(trifluoromethyl)phenyl]carbonyl}-3-(4-fluorophenyl)-2-methyl-4,5,6,7-tetrahydro-2H-pyrazolo[3,4-c]pyridine] | 51.0 % control |
| COc1ccccc1-n1nnc2c1CCN(C(=O)c1cccc(C(F)(F)F)c1F)C2 [Example 124, (2-Fluoro-3-(trifluoromethyl)phenyl)(1-(2-methoxyphenyl)-6,7-dihydro-1H-[1,2,3]triazolo[4,5-c]pyridin-5(4H)-yl)methanone] | 94.7 % control |
| Cn1nc2c(c1-c1ccccc1)CCN(C(=O)c1cccc(Cl)c1Cl)C2 [Example 102, 6-[(2,3-Dichlorophenyl)carbonyl]-2-methyl-3-phenyl-4,5,6,7-tetrahydro-2H-pyrazolo[3,4-c]pyridine] | 18.0 % control |
| O=C(c1c(F)cccc1Cl)N1CCc2c(-c3ccccc3)n[nH]c2C1 [Example 325, (2-chloro-6-fluorophenyl)(3-phenyl-4,5-dihydro-1H-pyrazolo[3,4-c]pyridin-6(7H)-yl)methanone] | 99.7 % control |
| Cn1nc2c(c1-c1cccnc1)CCN(C(=O)c1cccc(C(F)(F)F)c1Cl)C2 [Example 107, 6-{[2-Chloro-3-(trifluoromethyl)phenyl]carbonyl}-2-methyl-3-pyridin-3-yl-4,5,6,7-tetrahydro-2H-pyrazolo[3,4-c]pyridine] | 24.7 % control |
| Cn1nc2c(c1-c1cccnc1)CCN(C(=O)c1cccc(Cl)c1Cl)C2 [Example 111, 6-[(2,3-Dichlorophenyl)carbonyl]-2-methyl-3-pyridin-3-yl-4,5,6,7-tetrahydro-2H-pyrazolo[3,4-c]pyridine] | 15.7 % control |

same assay, conditions: compound 10 μM, LPS 30 ng/ml, Bz-ATP 0.5 mM

| Compound | PBMC 10 μM (% control) |
| --- | --- |
| C[C@H]1c2nnn(-c3ncc(F)cn3)c2CCN1C(=O)c1ccnc(C(F)(F)F)c1Cl (single isomer, unassigned) [Example 164, (S*)-(3-chloro-2-(trifluoromethyl)pyridin-4-yl)(1-(5-fluoropyrimidin-2-yl)-4-methyl-6,7-dihydro-1H-[1,2,3]triazolo[4,5-c]pyridin-5(4H)-yl)methanone] | 98.1 % control |
| C[C@@H]1Cc2c(nnn2-c2ccccn2)CN1C(=O)c1cccc(C(F)(F)F)c1Cl (single isomer, unassigned) [Example 119, 5-{[2-Chloro-3-(trifluoromethyl)phenyl]carbonyl}-(R*)-6-methyl-1-pyridin-2-yl-4,5,6,7-tetrahydro-1H-[1,2,3]triazolo[4,5-c]pyridine] | 20.0 % control |
| C[C@H]1c2ncn(-c3ccc(F)cn3)c2CCN1C(=O)c1cccc(C(F)(F)F)c1Cl (stereo in doubt) [Example 41] | 40.5 % control |
| CC1Cc2c(nnn2-c2ncccc2F)CN1C(=O)c1cccc(Cl)c1Cl (stereo not drawn) [Example 161, (2,3-Dichlorophenyl)(1-(3-fluoropyridin-2-yl)-6-methyl-6,7-dihydro-1H-[1,2,3]triazolo[4,5-c]pyridin-5(4H)-yl)methanone] | −0.9 % control |
| Cc1c(C(=O)N2CCc3c(nnn3-c3ncccn3)[C@@H]2C)cccc1C(F)(F)F (single isomer, unassigned) [Example 197, (S*)-(4-methyl-1-(pyrimidin-2-yl)-6,7-dihydro-1H-[1,2,3]triazolo[4,5-c]pyridin-5(4H)-yl)(2-methyl-3-(trifluoromethyl)phenyl)methanone] | 2.1 % control |
| C[C@@H]1c2ncn(-c3ccccn3)c2CCN1C(=O)c1cccc(C(F)(F)F)c1F (single isomer, unassigned) [Example 42, (4R*)-5-{[2-Fluoro-3-(trifluoromethyl)phenyl]carbonyl}-4-methyl-1-pyridin-2-yl-4,5,6,7-tetrahydro-1H-imidazo[4,5-c]pyridine] | 5.8 % control |
| C[C@H]1Cc2c(nnn2-c2ccccn2)CN1C(=O)c1cccc(C(F)(F)F)c1Cl (single isomer, unassigned) [Example 118, 5-{[2-Chloro-3-(trifluoromethyl)phenyl]carbonyl}-(S*)-6-methyl-1-pyridin-2-yl-4,5,6,7-tetrahydro-1H-[1,2,3]triazolo[4,5-c]pyridine] | 12.6 % control |
| CC1c2nnn(-c3ncccn3)c2CCN1C(=O)c1cccc(C(F)(F)F)c1Cl (single isomer, unassigned) [Example 88, (4R*)-5-{[2-Chloro-3-(trifluoromethyl)phenyl]carbonyl}-4-methyl-1-pyrimidin-2-yl-4,5,6,7-tetrahydro-1H-[1,2,3]triazolo[4,5-c]pyridine] | 13.3 % control |
| C[C@@H]1c2ncn(-c3ncc(F)cn3)c2CCN1C(=O)c1cccc(C(F)(F)F)c1Cl (single isomer, unassigned) [Example 193, (R*)-(2-Chloro-3-(trifluoromethyl)phenyl)(1-(5-fluoropyrimidin-2-yl)-4-methyl-6,7-dihydro-1H-imidazo[4,5-c]pyridin-5(4H)-yl)methanone] | 1.4 % control |
| C[C@@H]1Cc2c(nnn2-c2ncc(F)cn2)CN1C(=O)c1cccc(Cl)c1Cl (single isomer, unassigned) [Example 204, (6R*)-5-[(2,3-Dichlorophenyl)carbonyl]-1-(5-fluoropyrimidin-2-yl)-6-methyl-4,5,6,7-tetrahydro-1H-[1,2,3]triazolo[4,5-c]pyridine] | 180.6 % control |
| Cc1cccnc1-n1nnc2c1CCN(C(=O)c1cccc(C(F)(F)F)c1Cl)[C@H]2C (single isomer, unassigned) [Example 292, (S*)-(2-chloro-3-(trifluoromethyl)phenyl)(4-methyl-1-(3-methylpyridin-2-yl)-6,7-dihydro-1H-[1,2,3]triazolo[4,5-c]pyridin-5(4H)-yl)methanone] | 36.7 % control |

The next lines start with the values.

| PBMC 10 μM (% control) | Compound |
| --- | --- |
| 28.5 % control | C[C@@H]1Cc2c(nnn2-c2cnccn2)CN1C(=O)c1cccc(C(F)(F)F)c1Cl (single isomer, unassigned) [Example 211, (6R*)-5-{[2-Chloro-3-(trifluoromethyl)phenyl]carbonyl}-6-methyl-1-pyrazin-2-yl-4,5,6,7-tetrahydro-1H-[1,2,3]triazolo[4,5-c]pyridine] |
| 19.5 % control | COc1ccnc(-n2nnc3c2CCN(C(=O)c2cccc(C(F)(F)F)c2Cl)[C@H]3C)c1 (single isomer, unassigned) [Example 151, (R*)-(2-Chloro-3-(trifluoromethyl)phenyl)(1-(4-methoxypyridin-2-yl)-4-methyl-6,7-dihydro-1H-[1,2,3]triazolo[4,5-c]pyridin-5(4H)-yl)methanone] |
| 0.6 % control | C[C@H]1Cc2c(nnn2-c2ncccc2F)CN1C(=O)c1cccc(Cl)c1Cl (single isomer, unassigned) [Example 166, (6S*)-5-[(2,3-Dichlorophenyl)carbonyl]-1-(3-fluoropyridin-2-yl)-6-methyl-4,5,6,7-tetrahydro-1H-[1,2,3]triazolo[4,5-c]pyridine] |
| 76.5 % control | C[C@@H]1Cc2c(nnn2-c2ncc(F)cn2)CN1C(=O)c1cccc(C(F)(F)F)c1F [Example 219, (6R)-1-(5-Fluoropyrimidin-2-yl)-5-{[2-fluoro-3-(trifluoromethyl)phenyl]carbonyl}-6-methyl-4,5,6,7-tetrahydro-1H-[1,2,3]triazolo[4,5-c]pyridine] |
| 15.4 % control | COc1ccnc(-n2nnc3c2CCN(C(=O)c2cccc(C(F)(F)F)c2Cl)[C@@H]3C)c1 (single isomer, unassigned) [Example 152, (S*)-(2-Chloro-3-(trifluoromethyl)phenyl)(1-(4-methoxypyridin-2-yl)-4-methyl-6,7-dihydro-1H-[1,2,3]triazolo[4,5-c]pyridin-5(4H)-yl)methanone] |
| 20.4 % control | C[C@@H]1Cc2c(nnn2-c2ncc(F)cn2)CN1C(=O)c1cccc(C(F)(F)F)c1Cl (single isomer, unassigned) [Example 201, (6R*)-5-{[2-Chloro-3-(trifluoromethyl)phenyl]carbonyl}-1-(5-fluoropyrimidin-2-yl)-6-methyl-4,5,6,7-tetrahydro-1H-[1,2,3]triazolo[4,5-c]pyridine] |
| 2.6 % control | C[C@@H]1Cc2c(nnn2-c2ccn[nH]2)[C@H](C)N1C(=O)c1cccc(C(F)(F)F)c1Cl [Example 297, (2-chloro-3-(trifluoromethyl)phenyl)((4S,6R)-4,6-dimethyl-1-(1H-pyrazol-5-yl)-6,7-dihydro-1H-[1,2,3]triazolo[4,5-c]pyridin-5(4H)-yl)methanone] |
| 0.8 % control | CC1Cc2c(nnn2-c2cc[nH]n2)CN1C(=O)c1cccc(C(F)(F)F)c1Cl (stereo not drawn) [Example 210, (2-chloro-3-(trifluoromethyl)phenyl)(6-methyl-1-(1H-pyrazol-3-yl)-6,7-dihydro-1H-[1,2,3]triazolo[4,5-c]pyridin-5(4H)-yl)methanone] |
| −5.5 % control | Cc1c(C(=O)N2CCc3c(nnn3-c3ncccn3)C2C)cccc1C(F)(F)F (stereo not drawn) [Example 282, (4-methyl-1-(pyrimidin-2-yl)-6,7-dihydro-1H-[1,2,3]triazolo[4,5-c]pyridin-5(4H)-yl)(2-methyl-3-(trifluoromethyl)phenyl)methanone] |
| 0.6 % control | CC1Cc2c(nnn2-c2ncc(F)cn2)CN1C(=O)c1cccc(Cl)c1Cl (stereo not drawn) [Example 203, 5-[(2,3-Dichlorophenyl)carbonyl]-1-(5-fluoropyrimidin-2-yl)-6-methyl-4,5,6,7-tetrahydro-1H-[1,2,3]triazolo[4,5-c]pyridine] |
